Thermal conductivity data for five molecules are collected here from the NIST ThermoML archive (doi:10.1021/je0498661).

± gives the expanded uncertainty stated by the source.

The conditions of this data set: 101.33 kPa, Liquid, Hot wire method.

For `CCSCC` [3-thiapentane], the thermal conductivity runs as follows: (273.15 K) 0.145 ± 0.003 W/m/K; (293.15 K) 0.14 ± 0.003 W/m/K; (313.15 K) 0.137 ± 0.003 W/m/K; (333.15 K) 0.13 ± 0.003 W/m/K.

For the molecule `C1CCSC1` [tetrahydrothiophene], the thermal conductivity (273.15 K) is 0.12 ± 0.003 W/m/K; the thermal conductivity (288.15 K) is given as 0.117 ± 0.002 W/m/K; the thermal conductivity (303.15 K) was 0.115 ± 0.002 W/m/K; the thermal conductivity (318.15 K) is 0.112 ± 0.002 W/m/K; the thermal conductivity (333.15 K) is reported as 0.11 ± 0.002 W/m/K.

On to `CN(C)CCN(C)C` [N,N,N',N'-tetramethyl-1,2-diaminoethane], for which the thermal conductivity is listed as 0.154 ± 0.003 W/m/K (273.15 K), 0.15 ± 0.003 W/m/K (293.15 K), 0.144 ± 0.003 W/m/K (313.15 K) and 0.135 ± 0.003 W/m/K (333.15 K).

With `CC#N` [acetonitrile], the thermal conductivity is, setting by setting: (273.15 K) 0.207 ± 0.004 W/m/K; (293.15 K) 0.195 ± 0.004 W/m/K; (313.15 K) 0.183 ± 0.004 W/m/K.

As to `C1CCCNCC1` [azacycloheptane], the thermal conductivity runs as follows: (273.15 K) 0.141 ± 0.003 W/m/K; (293.15 K) 0.137 ± 0.003 W/m/K; (313.15 K) 0.131 ± 0.003 W/m/K; (333.15 K) 0.126 ± 0.003 W/m/K.
